# Measured values from patent publication US7414066B2, “Amide compounds and medications containing the same technical field” (Kowa Company Ltd., priority 1999, dated 2008).
row,Structure (SMILES),melting point
1,"CCSc1cc(C)nc(SCC)c1NC(=O)CCCCCCSc1nc2c(C)c(Cl)cc(C(C)C)c2o1 [Compound No. 1282, 7-(5-chloro-7-isopropyl-4-methylbenzoxazol-2-ylthio)-N-[2,4-bis(ethylthio)-6-methyl-3-pyridyl]heptanamide]",117 to 120 °C
2,"CCSc1cc(C)nc(SCC)c1NC(=O)CCCCCCCSc1nc2c(C)c(Cl)cc(C(C)C)c2o1 [Compound No. 1283, 8-(5-chloro-7-isopropyl-4-methylbenzoxazol-2-ylthio)-N-[2,4-bis(ethylthio)-6-methyl-3-pyridyl]octanamide]",82 to 84 °C
3,"CCSc1cc(C)nc(SCC)c1NC(=O)CCCCCCCCSc1nc2c(C)c(Cl)cc(C(C)C)c2o1 [Compound No. 1284, 9-(5-chloro-7-isopropyl-4-methylbenzoxazol-2-ylthio)-N-[2,4-bis(ethylthio)-6-methyl-3-pyridyl]nonanamide]",93 to 94 °C
4,"Cc1cc(SC(C)C)c(NC(=O)CCCSc2nc3cccc(C(F)(F)F)c3o2)c(SC(C)C)n1 [Compound No. 1289, 4-(7-trifluoromethylbenzoxazol-2-ylthio)-N-[2,4-bis(isopropylthio)-6-methyl-3-pyridyl]butanamide]",135 to 136 °C
5,"Cc1cc(SC(C)C)c(NC(=O)CCCCSc2nc3cccc(C(F)(F)F)c3o2)c(SC(C)C)n1 [Compound No. 1290, 5-(7-trifluoromethylbenzoxazol-2-ylthio)-N-[2,4-bis(isopropylthio)-6-methyl-3-pyridyl]pentanamide]",118 to 120 °C
6,"Cc1cc(SC(C)C)c(NC(=O)CCCCCSc2nc3cccc(C(F)(F)F)c3o2)c(SC(C)C)n1 [Compound No. 1291, 6-(7-trifluoromethylbenzoxazol-2-ylthio)-N-[2,4-bis(isopropylthio)-6-methyl-3-pyridyl]hexanamide]",102 to 103 °C
7,"Cc1cc(SC(C)C)c(NC(=O)CCCSc2nc3c(C)c(Cl)cc(C(C)C)c3o2)c(SC(C)C)n1 [Compound No. 1299, 4-(5-chloro-7-isopropyl-4-methylbenzoxazol-2-ylthio)-N-[2,4-bis(isopropylthio)-6-methyl-3-pyridyl]butanamide]",141 to 143 °C
8,"Cc1cc(SC(C)C)c(NC(=O)CCCCSc2nc3c(C)c(Cl)cc(C(C)C)c3o2)c(SC(C)C)n1 [Compound No. 1300, 5-(5-chloro-7-isopropyl-4-methylbenzoxazol-2-ylthio)-N-[2,4-bis(isopropylthio)-6-methyl-3-pyridyl]pentanamide]",143 to 145 °C
9,"Cc1cc(SC(C)C)c(NC(=O)CCCCCSc2nc3c(C)c(Cl)cc(C(C)C)c3o2)c(SC(C)C)n1 [Compound No. 1301, 6-(5-chloro-7-isopropyl-4-methylbenzoxazol-2-ylthio)-N-[2,4-bis(isopropylthio)-6-methyl-3-pyridyl]hexanamide]",99 to 101 °C
10,"Cc1cc(SC(C)C)c(NC(=O)CCCCCCSc2nc3c(C)c(Cl)cc(C(C)C)c3o2)c(SC(C)C)n1 [Compound No. 1302, 7-(5-chloro-7-isopropyl-4-methylbenzoxazol-2-ylthio)-N-[2,4-bis(isopropylthio)-6-methyl-3-pyridyl]heptanamide]",91 to 93 °C
11,"CCSc1cc(C)nc(SCC)c1NC(=O)CSc1nc2cccc(S(C)(=O)=O)c2o1 [Compound No. 1317, 2-(7-methansulfonylbenzoxazol-2-ylthio)-N-[2,4-bis(ethylthio)-6-methyl-3-pyridyl]acetamide]",159 to 162 °C
12,"CSc1nc(SC)c(NC(=O)CCCCCSc2nc3ccccc3o2)c(SC)n1 [Compound No. 1401, 6-(benzoxazol-2-ylthio)-N-[2,4,6-tris(methylthio)-5-pyrimidyl]hexanamide]",149 to 153 °C
13,"CCSc1cc(C)nc(SCC)c1NC(=O)CSc1nc2cccc(C(=O)OC)c2o1 [Compound No. 1427, 2-(7-methoxycarbonylbenzoxazol-2-ylthio)-N-[2,4-bis(ethylthio)-6-methyl-3-pyridyl]acetamide]",168 to 169 °C
14,"CSc1cc(C)nc(SC)c1NC(=O)CCCCCCCSc1nc2c(C)c(Cl)cc(C(C)C)c2o1 [Example 95, 8-(5-chloro-7-isopropyl-4-methylbenzoxazol-2-ylthio)-N-[2,4-bis(methylthio)-6-methyl-3-pyridyl]octanamide]",128 to 131 °C
15,"CSc1ncccc1NC(=O)CCCCCSc1nc2ccccc2o1 [compound 5, 6-(benzoxazol-2-ylthio)-N-(2-methylthio-3-pyridyl)hexanamide]",127 to 128 °C
16,"CSc1ncccc1NC(=O)CCCCCSc1nc2ccccc2s1 [compound 15, 6-(benzothiazol-2-ylthio)-N-(2-methylthio-3-pyridyl)hexanamide]",118 to 119 °C
17,"CSc1ncccc1NC(=O)CCCCCCCCSc1nc2ccccc2s1 [compound 18, 9-(benzothiazol-2-ylthio)-N-(2-methylthio-3-pyridyl)nonanamide]",107 to 108 °C
18,"CSc1ncccc1NC(=O)CCCCCSc1nc2ccccc2[nH]1 [compound 25, 6-(benzimidazol-2-ylthio)-N-(2-methylthio-3-pyridyl)hexanamide]",121 to 123 °C
19,"CSc1nccc(C)c1NC(=O)CCCCCCCCSc1nc2ccccc2o1 [compound 158, 9-(benzoxazol-2-ylthio)-N-(4-methyl-2-methylthio-3-pyridyl)nonanamide]",91 to 92 °C
20,"CSc1nc(C)ccc1NC(=O)CCCCCSc1nc2ccccc2o1 [compound 455, 6-(benzoxazol-2-ylthio)-N-(6-methyl-2-methylthio-3-pyridyl)hexanamide]",140 to 141 °C

row,Structure (SMILES),melting point
1,"CSc1nc(C)ccc1NC(=O)CCCCCCCCSc1nc2ccccc2o1 [compound 458, 9-(benzoxazol-2-ylthio)-N-(6-methyl-2-methylthio-3-pyridyl)nonanamide]",99 to 100 °C
2,"CSc1nc(C)ccc1NC(=O)CCCCCSc1nc2ccccc2s1 [compound 465, 6-(benzothiazol-2-ylthio)-N-(6-methyl-2-methylthio-3-pyridyl)hexanamide]",122 to 123 °C
3,"CSc1nc(C)ccc1NC(=O)CCCCCCCCSc1nc2ccccc2s1 [compound 468, 9-(benzothiazol-2-ylthio)-N-(6-methyl-2-methylthio-3-pyridyl)nonanamide]",104 to 105 °C
4,"CSc1nc(C)ccc1NC(=O)CCCCCSc1nc2ccccc2[nH]1 [compound 475, 6-(benzimidazol-2-ylthio)-N-(6-methyl-2-methylthio-3-pyridyl)hexanamide]",138 to 140 °C
5,"CSc1cc(C)nc(SC)c1NC(=O)CSc1nc2ccccc2o1 [compound 781, 2-(benzoxazol-2-ylthio)-N-[2,4-bis(methylthio)-6-methyl-3-pyridyl]acetamide]",203 to 205 °C
6,"CSc1cc(C)nc(SC)c1NC(=O)CCCSc1nc2ccccc2o1 [compound 783, 4-(benzoxazol-2-ylthio)-N-[2,4-bis(methylthio)-6-methyl-3-pyridyl]butanamide]",149 to 150 °C
7,"CSc1cc(C)nc(SC)c1NC(=O)CCCCCSc1nc2ccccc2o1 [compound 785, 6-(benzoxazol-2-ylthio)-N-[2,4-bis(methylthio)-6-methyl-3-pyridyl]hexanamide]",120 to 121 °C
8,"CSc1cc(C)nc(SC)c1NC(=O)CCCCCCCCSc1nc2ccccc2o1 [compound 788, 9-(benzoxazol-2-ylthio)-N-[2,4-bis(methylthio)-6-methyl-3-pyridyl]nonanamide]",123 to 124 °C
9,"CSc1cc(C)nc(SC)c1NC(=O)CCCSc1nc2ccccc2s1 [compound 793, 4-(benzothiazol-2-ylthio)-N-[2,4-bis(methylthio)-6-methyl-3-pyridyl]butanamide]",131 to 133 °C
10,"CSc1cc(C)nc(SC)c1NC(=O)CCCCCSc1nc2ccccc2s1 [compound 795, 6-(benzothiazol-2-ylthio)-N-[2,4-bis(methylthio)-6-methyl-3-pyridyl]hexanamide]",123 to 125 °C
11,"CSc1cc(C)nc(SC)c1NC(=O)CCCCCCCCSc1nc2ccccc2s1 [compound 798, 9-(benzothiazol-2-ylthio)-N-[2,4-bis(methylthio)-6-methyl-3-pyridyl]nonanamide]",126 to 127 °C
12,"CSc1cc(C)nc(SC)c1NC(=O)CCCSc1nc2ccccc2[nH]1 [compound 803, 4-(benzimidazol-2-ylthio)-N-[2,4-bis(methylthio)-6-methyl-3-pyridyl]butanamide]",177 to 179 °C
13,"CSc1cc(C)nc(SC)c1NC(=O)CCCCCSc1nc2ccccc2[nH]1 [compound 805, 6-(benzimidazol-2-ylthio)-N-[2,4-bis(methylthio)-6-methyl-3-pyridyl]hexanamide]",139 to 141 °C
14,"CCSc1cc(C)nc(SCC)c1NC(=O)CSc1nc2ccccc2o1 [compound 811, 2-(benzoxazol-2-ylthio)-N-[2,4-bis(ethylthio)-6-methyl-3-pyridyl]acetamide]",143 to 145 °C
15,"CCSc1cc(C)nc(SCC)c1NC(=O)CCCCCSc1nc2ccccc2o1 [compound 815, 6-(benzoxazol-2-ylthio)-N-[2,4-bis(ethylthio)-6-methyl-3-pyridyl]hexanamide]",100 to 103 °C
16,"CCSc1cc(C)nc(SCC)c1NC(=O)CCCCCCCCSc1nc2ccccc2o1 [compound 818, 9-(benzoxazol-2-ylthio)-N-[2,4-bis(ethylthio)-6-methyl-3-pyridyl]nonanamide]",84 to 87 °C
17,"CCSc1cc(C)nc(SCC)c1NC(=O)CSc1nc2ccccc2s1 [compound 821, 2-(benzothiazol-2-ylthio)-N-[2,4-bis(ethylthio)-6-methyl-3-pyridyl]acetamide]",119 to 120 °C
18,"CCSc1cc(C)nc(SCC)c1NC(=O)CCCCCSc1nc2ccccc2s1 [compound 825, 6-(benzothiazol-2-ylthio)-N-[2,4-bis(ethylthio)-6-methyl-3-pyridyl]hexanamide]",81 to 83 °C
19,"CCSc1cc(C)nc(SCC)c1NC(=O)CSc1nc2ccccc2[nH]1 [compound 831, 2-(benzimidazol-2-ylthio)-N-[2,4-bis(ethylthio)-6-methyl-3-pyridyl]acetamide]",182 to 183 °C
